Values of other authors in patent US20260201030A1, “ANTIBODY, ANTIBODY-DRUG CONJUGATE THEREOF AND USE THEREOF” (EVOPOINT BIOSCIENCES CO., LTD., priority 2021, published 2026).

Conditions: FL118 alone; cited from earlier work

## CC[C@@]1(O)C(=O)OCc2c1cc1n(c2=O)Cc2cc3cc4c(cc3nc2-1)OCO4 [FL118, (20S)-10,11-methylenedioxy camptothecin]
  water solubility: extremely poor water solubility
